Source: patent publication US6414037B1 (Pharmascience, priority 1998, dated 2002)

System: C3H/10T1/2 clone 8 cells
Experiment: Two-stage transformation assay in C3H10T1/2 cells
Type: cell-based, mouse
Details: DMBA (0.25 μg/ml), TPA (0.1 μg/ml)
Experimental: This 10T1/2 cell line of mouse embryo fibroblasts has been widely used as an experimental system to study neoplastic transformation induced by a variety of agents, such as polycyclic hydrocarbons, methylating agents, and X-rays. Two-stage transformation assays, with 3-methylcholanthrene (MCA) or DMBA as inducer and TPA as promoter, were performed in these tests.
C3H10T1/2 Cl 8 cells were purchased from the American Type Culture Collection (ATCC CCL 226, Rockville, Md.) and maintained in Eagle's basal medium with Earle's salts (EBME) containing 10% (v/v) fetal bovine serum (FBS, Gibco Laboratories, Chagrin Falls, Ohio) without antibiotics, and sodium bicarbonate (2.2 gl). Cells were seeded at 5×10^4 per 75 cm^2 flask and grown in a humidified incubator containing 5% carbon dioxide in air at 37° C. Cells used in all these experiments were passage between 10-13.
Two-stage transformation assays in C3H10T1/2 cells were performed according to a procedure modified from that described in Mondal et al. (1976) Cancer Res. 36:2254-2260. One thousand cells obtained from freshly confluent flasks were seeded per well in 12-well plate containing 2 ml of medium (12 wells per experimental point). After incubation at 37° C. for three days, MCA or DMBA (2 mg/ml stock solution in DMSO) was added to give final concentrations of 0.25 μg/ml. Carcinogen-containing medium was removed from the growing cultures after 24 hours and cells were rinsed once with PBS before addition of fresh EBME supplemented with 10% FBS and gentamycin (25 μg/ml). […] TPA and test compounds were added to the medium each time the medium was changed. Medium was changed on all plates twice weekly. After confluency was reached, the FBS concentration was reduced to 5% and amphotericin B (fungizone, 1.5 μg/ml) was added to the medium (see Reznikoff et al. (1973) Cancer Res. 33:3239-3249 and Bertram (1979) Cancer Lett. 7:289-298). Subsequent medium changes were performed weekly. Cultures were fixed with methanol and stained with Giemsa at the seventh week. Type II and III transformed foci were scored according to the teachings of Landolph “Transformation Assay of Established Cell Lines: Mechanism and Application,” Eds. Kakunaga et al. (Toronto: Oxford University Press, 1985), at pp. 185-199.

[1] = all-trans-retinyl acetate (0.3 μg/ml)

Compound	No. of wells foci/total no. of wells [1]	Total No. of foci/no. wells scored [1]	Total No. type II [1]	Total No. type III [1]	Wells with foci (%) [1] [%]	No. of wells foci/total no. of wells (aspirin 200 μM)	Total No. of foci/no. wells scored (aspirin 200 μM)	Total No. type II (aspirin 200 μM)	Total No. type III (aspirin 200 μM)	Wells with foci (%) (aspirin 200 μM)
CC(=O)OC/C=C(C)/C=C/C=C(C)/C=C/C1=C(C)CCCC1(C)C [all-trans-retinyl acetate]	0/12	0/12	0	0	0					
CC(=O)Oc1ccccc1C(=O)O [aspirin]						0/12	0/12	0	0	0
